What was measured:
CDK9 kinase = molecular target: T1, CDK9 kinase (Homo sapiens, UniProt P50750); experiment: Inhibitory effect on the kinase activity of CDK9 in vitro; format: biochemical; conditions: CDK9 kinase (Millipore), CTD3 substrate polypeptide, Caliper
T1 construct: purchased Millipore 14-685M
Description: The detection of the inhibitory effect of the compounds of the present disclosure on the kinase activity of CDK9 in vitro was determined by the following method:
Compound preparation: The compound was accurately weighed and dissolved in DMSO (Sigma, D2650) to a concentration of 100 um for later use. The compound was diluted to 5-fold of a desired highest concentration, and diluted 4-fold into 6 concentration gradients, allowing the final concentration of the compound in the reaction system to be 100, 25, 6.25, 1.56, 0.39, 0.098 nM. 5 ul was taken to a 384-well plate (Corning, 4512).
Detection: Data was collected by Caliper.
Calculation: The IC50 value was calculated by Graphpad prism 5.0 software according to the concentration of the compound and the corresponding signal value.

Mv4-11 cells = experiment: Inhibition of the proliferation of Mv4-11 cells (CCK8); format: cell-based; conditions: Mv4-11 cell proliferation, CCK8 OD450
Description: The inhibition effect of the compounds of the present disclosure on the proliferation of Mv4-11 cells (ATCC:CRL-9591TM) in vitro was determined by the following method:
Cell inoculation: Mv4-11 cells with good growing state in logarithmic growth phase were inoculated into a 96-well plate at 20000 cells per well and 50 uL, and cultured at 37° C. and under 5% CO2 condition for 2-4 h. Administration: The compound was diluted with 1640 medium containing 10% FBS and 1% PS: 0.4 uL of the compound with an initial concentration of 1 mM was placed in a dilution plate, each added with 199.6 uL of the above culture medium, and gradiently diluted 4-fold, so that the final concentration in the added cell was 1000, 250, 62.5, 15.625, 3.91, 0.98, 0.24, 0.06 nM. 50 μL of the medium containing the compound was sequentially added, and it was placed in a 37° C., 5% CO2 cell incubator for 48 hours.
Detection: 10 uL CCK8 (Dojindo, CK 04) solution was added to each well, incubated in 37° C. 5% CO2 cell incubator for 2 hours, and then the OD450 value was read by Synegry H1 (BioTek) multimode microplate reader.
Calculation: The IC50 value was calculated using Graphpad prism 5.0 software according to the concentration of the compound and the corresponding signal value.

T1 sequence (P50750 whole entry): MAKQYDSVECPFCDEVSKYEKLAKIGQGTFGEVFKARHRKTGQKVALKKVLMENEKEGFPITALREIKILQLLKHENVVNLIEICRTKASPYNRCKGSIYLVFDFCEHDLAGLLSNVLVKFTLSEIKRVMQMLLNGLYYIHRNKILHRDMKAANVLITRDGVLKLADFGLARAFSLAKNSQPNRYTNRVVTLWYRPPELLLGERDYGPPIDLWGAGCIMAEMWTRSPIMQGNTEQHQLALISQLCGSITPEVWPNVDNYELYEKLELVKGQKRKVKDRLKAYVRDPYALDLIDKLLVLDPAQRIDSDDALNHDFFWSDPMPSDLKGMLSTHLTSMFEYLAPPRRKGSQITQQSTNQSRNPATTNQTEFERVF
T1 sequence (O60563 whole entry partner): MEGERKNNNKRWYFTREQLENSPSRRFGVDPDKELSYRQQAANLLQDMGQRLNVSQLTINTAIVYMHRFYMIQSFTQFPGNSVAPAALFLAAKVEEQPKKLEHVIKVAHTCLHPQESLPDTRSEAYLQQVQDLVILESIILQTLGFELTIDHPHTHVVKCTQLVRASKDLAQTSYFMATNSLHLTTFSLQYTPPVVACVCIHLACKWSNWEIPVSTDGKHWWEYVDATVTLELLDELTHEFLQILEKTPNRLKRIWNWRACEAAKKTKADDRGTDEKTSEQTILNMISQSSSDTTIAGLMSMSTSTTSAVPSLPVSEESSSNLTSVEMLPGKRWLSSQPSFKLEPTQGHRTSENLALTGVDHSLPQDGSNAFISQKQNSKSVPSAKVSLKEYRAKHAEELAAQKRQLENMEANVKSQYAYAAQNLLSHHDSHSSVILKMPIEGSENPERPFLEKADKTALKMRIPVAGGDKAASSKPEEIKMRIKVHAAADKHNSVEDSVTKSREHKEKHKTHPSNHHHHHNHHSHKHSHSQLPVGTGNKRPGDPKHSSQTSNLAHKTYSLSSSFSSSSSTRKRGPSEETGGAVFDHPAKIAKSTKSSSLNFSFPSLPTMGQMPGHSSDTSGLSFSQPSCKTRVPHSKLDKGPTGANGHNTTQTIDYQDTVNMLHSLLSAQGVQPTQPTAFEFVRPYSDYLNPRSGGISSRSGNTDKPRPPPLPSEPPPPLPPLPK

Row | Structure (SMILES) | IC50 (CDK9 kinase) | IC50 (Mv4-11 cells; Homo sapiens, MV4-11, 48 h) | IC50 (Mv4-11 cells; 48 hours)
1 | CC(=O)N1CC[C@@]2(CC[C@@H](C(=O)Nc3cc(-c4cnn5c4CC(C)(C)C5)c(Cl)cn3)C2)C1 (single isomer, unassigned) [Compound 19-1] | 5.5 nM | 12.2 nM | 
2 | CC(=O)N1CC[C@@]2(CC[C@H](C(=O)Nc3cc(-c4cnn5c4CC(C)(C)C5)c(Cl)cn3)C2)C1 (single isomer, unassigned) [Compound 18-1] | 3.2 nM | 1.4 nM | 
3 | CNC(=O)C1C[C@@H]2CC(C(=O)Nc3cc(-c4cc(C(N)=O)n5c4CC(C)(C)C5)c(Cl)cn3)C[C@@H]2C1 (single isomer, unassigned) [Compound 26-2] | 3.5 nM |  | 5.1 nM
4 | CNC(=O)C1C[C@@H]2CC(C(=O)Nc3cc(-c4cc(C(N)=O)n5c4CC(C)(C)C5)c(Cl)cn3)C[C@@H]2C1 (single isomer, unassigned) [Compound 26-1] | 2.9 nM | 4.1 nM | 
5 | CC(=O)N[C@@H]1CCC[C@H](C(=O)Nc2cc(-c3cnn4c3CC(C)(C)C4)c(C(F)(F)F)cn2)C1 [Compound 30, (1S,3R)-3-acetamido-N-(4-(5,5-dimethyl-5,6-dihydro-4H-pyrrolo[1,2-b]pyrazol-3-yl)-5-(trifluoromethyl)pyridin-2-yl)cyclohexane-1-carboxamide] | 6.3 nM | 15.3 nM | 
6 | C[C@H](N)C(=O)N1C[C@H]2CC(C(=O)Nc3cc(-c4cnn5c4CC(C)(C)C5)c(Cl)cn3)C[C@H]2C1 (stereo partly drawn) [Compound 5, (3aR,6aS)-2-(L-alanyl)-N-(5-chloro-4-(5,5-dimethyl-5,6-dihydro-4H-pyrrolo[1,2-b]pyrazol-3-yl)pyridin-2-yl)octahydrocyclopenta[c]pyrrole-5-carboxamide] | 2.8 nM | 7.6 nM | 
7 | CC1(C)Cc2c(-c3cc(NC(=O)[C@@H]4CCC[C@H](c5cccnc5)C4)ncc3Cl)cnn2C1 (single isomer, unassigned) [Compound 20-2] | 7 nM | 15 nM | 
8 | CC(=O)N[C@@H]1CCC[C@H](C(=O)Nc2cc(-c3cc(C#N)c4n3CC(C)(C)C4)c(F)cn2)C1 [Compound 27, (1S,3R)-3-acetamido-N-(4-(7-cyano-2,2-dimethyl-2,3-dihydro-1H-pyrrolizin-5-yl)-5-fluoropyridin-2-yl)cyclohexane-1-carboxamide] | 2.2 nM | 3.5 nM | 
9 | CC(=O)N[C@H]1C[C@@H]2C[C@@H](C(=O)Nc3cc(-c4cc(C(N)=O)n5c4CC(C)(C)C5)c(Cl)cn3)C[C@@H]2C1 (single isomer, unassigned) [Compound 24-1] | 3.8 nM | 5.9 nM | 
10 | CC(=O)N[C@H]1C[C@@H]2C[C@@H](C(=O)Nc3cc(-c4cc(C(N)=O)n5c4CC(C)(C)C5)c(F)cn3)C[C@@H]2C1 [Compound 34-1, 7-(2-((2r,3aR,5s,6aS)-5-acetylaminooctahydropentalene-2-carboxamido)-5-fluoropyridin-4-yl)-2,2-dimethyl-2,3-dihydro-1H-pyrrolizine-5-carboxamide] | 4.9 nM | 2.3 nM | 
11 | CC1(C)Cc2c(-c3cc(NC(=O)[C@H]4C[C@H]5C[C@@H](C(N)=O)C[C@H]5C4)ncc3Cl)cc(C(N)=O)n2C1 [Compound 15-2, (2r,3aR,5s,6aS)-N-(4-(5-carbamoyl-2,2-dimethyl-2,3-dihydro-1H-pyrrolizin-7-yl)-5-chloropyridin-2-yl)octahydropentalene-2,5-dicarboxamide] | 3.7 nM | 14.3 nM | 
12 | CC1(C)Cc2c(-c3cc(NC(=O)[C@H]4CCC[C@@H](c5cccnc5)C4)ncc3Cl)cnn2C1 (single isomer, unassigned) [Compound 20-3] | > 100 nM | > 1000 nM | 
13 | C[C@@H](N)C(=O)N1C[C@H]2CC(C(=O)Nc3cc(-c4cnn5c4CC(C)(C)C5)c(Cl)cn3)C[C@H]2C1 (stereo partly drawn) [Compound 6, (3aR,6aS)-2-(D-alanyl)-N-(5-chloro-4-(5,5-dimethyl-5,6-dihydro-4H-pyrrolo[1,2-b]pyrazol-3-yl)pyridin-2-yl)octahydrocyclopenta[c]pyrrole-5-carboxamide] | 3.7 nM | 5.4 nM | 
14 | CC1(C)Cc2c(-c3cc(NC(=O)[C@@H]4C[C@H]5C[C@H](C(N)=O)C[C@H]5C4)ncc3Cl)cc(C(N)=O)n2C1 [Compound 15-1, (2s,3aR,5r,6aS)-N-(4-(5-carbamoyl-2,2-dimethyl-2,3-dihydro-1H-pyrrolizin-7-yl)-5-chloropyridin-2-yl)octahydropentalene-2,5-dicarboxamide] | 10.1 nM | 7.9 nM | 
15 | CC(=O)N1C[C@H]2CC(C(=O)Nc3cc(-c4cc(C(N)=O)n5c4CC(C)(C)C5)c(Cl)cn3)C[C@H]2C1 (single isomer, unassigned) [Compound 8-1] | 3.5 nM |  | 7.7 nM
16 | CC(=O)N[C@@H]1CCC[C@H](C(=O)Nc2cc(-c3cc(C#N)c4n3CC(C)(C)C4)c(Cl)cn2)C1 [Compound 16, (1S,3R)-3-acetamido-N-(5-chloro-4-(7-cyano-2,2-dimethyl-2,3-dihydro-1H-pyrrolizin-5-yl)pyridin-2-yl)cyclohexane-1-carboxamide] | 2.9 nM |  | 
17 | CC(=O)N[C@@H]1CCC[C@H](C(=O)Nc2cc(-c3cc(C(N)=O)n4c3CC(C)(C)C4)c(Cl)cn2)C1 [Compound 2, 7-(2-((1S,3R)-3-acetylaminocyclohexane-1-carboxamido)-5-chloropyridin-4-yl)-2,2-dimethyl-2,3-dihydro-1H-pyrrolizine-5-carboxamide] | 2.8 nM | 27.6 nM | 
18 | CC(=O)N1C[C@H]2CC(C(=O)Nc3cc(-c4cc(C(N)=O)n5c4CC(C)(C)C5)c(Cl)cn3)C[C@H]2C1 (single isomer, unassigned) [Compound 8-2] | 3.1 nM |  | 0.4 nM
19 | CC(=O)N1C[C@H]2CC(C(=O)Nc3cc(-c4cnn5c4CC(C)(C)C5)c(Cl)cn3)C[C@H]2C1 (single isomer, unassigned) [Compound 4-2] | 2.9 nM | 6.8 nM | 
20 | Cn1cc([C@@H]2CCC[C@H](C(=O)Nc3cc(-c4cnn5c4CC(C)(C)C5)c(Cl)cn3)C2)cn1 (single isomer, unassigned) [Compound 23-1] | 3.8 nM | 7.9 nM | 
21 | CC(=O)N[C@@H]1CCC[C@H](C(=O)Nc2cc(-c3cc(C(N)=O)c4n3CC(C)(C)C4)c(F)cn2)C1 [Compound 31, 5-(2-((1S,3R)-3-acetylaminocyclohexane-1-carboxamido)-5-fluoropyridin-4-yl)-2,2-dimethyl-2,3-dihydro-1H-pyrrolizine-7-carboxamide] | 4.8 nM | 9.2 nM | 
22 | CC(=O)N[C@@H]1CCC[C@H](C(=O)Nc2cc(-c3cc(C(N)=O)c4n3CC(C)(C)C4)c(Cl)cn2)C1 [Compound 17, 5-(2-((1S,3R)-3-acetylaminocyclohexane-1-carboxamido)-5-chloropyridin-4-yl)-2,2-dimethyl-2,3-dihydro-1H-pyrrolizine-7-carboxamide] | 4.9 nM | 36.1 nM | 
23 | CC1(C)Cc2c(-c3cc(NC(=O)[C@@H]4CCC[C@@H](c5cccnc5)C4)ncc3Cl)cnn2C1 (single isomer, unassigned) [Compound 20-4] | 2.8 nM | 0.5 nM | 
24 | CC(=O)N[C@@H]1CCC[C@H](C(=O)Nc2cc(-c3cc(C#N)n4c3CC(C)(C)C4)c(Cl)cn2)C1 [Compound 1, (1S,3R)-3-acetamido-N-(5-chloro-4-(5-cyano-2,2-dimethyl-2,3-dihydro-1H-pyrrolizin-7-yl)pyridin-2-yl)cyclohexane-1-carboxamide] | 2.1 nM | 1.6 nM | 
25 | CC(=O)N[C@H]1C[C@@H]2C[C@H](C(=O)Nc3cc(-c4cc(C#N)n5c4CC(C)(C)C5)c(Cl)cn3)C[C@@H]2C1 (single isomer, unassigned) [Compound 14-2-1] | 4.3 nM | 10.6 nM | 
26 | CC(=O)N[C@@H]1C[C@@H]2C[C@H](C(=O)Nc3cc(-c4cc(C#N)n5c4CC(C)(C)C5)c(Cl)cn3)C[C@@H]2C1 (single isomer, unassigned) [Compound 14-2-2] | 10.4 nM | 44.6 nM | 
27 | CC1(C)Cc2c(-c3cc(NC(=O)[C@H]4CCC[C@H](c5cccnc5)C4)ncc3Cl)cnn2C1 (single isomer, unassigned) [Compound 20-1] | 28.6 nM | 352 nM | 
28 | CC(=O)N1C[C@H]2CC(C(=O)Nc3cc(-c4cc(C(N)=O)n5c4CC(C)(C)C5)ccn3)C[C@H]2C1 (single isomer, unassigned) [Compound 32-2] | 2.8 nM |  | 0.9 nM
29 | CC(=O)N1C[C@H]2CC(C(=O)Nc3cc(-c4cc(C(N)=O)n5c4CC(C)(C)C5)ccn3)C[C@H]2C1 (single isomer, unassigned) [Compound 32-1] | 4.8 nM |  | 3.5 nM

From US20230192703A1, “Polycyclic amide derivative as CDK9 inhibitor, preparation method therefor and use thereof” (Suzhou AlphaMa Biotechnology Co., Ltd., priority 2020, published 2023)
